Reference: the supplement of paper PMC10307832

Key:
Assay in all cases: relative viability (nuclei count vs DMSO), 5 days (fraction); higher = more cells survive
Entinostat + Luminespib = compound: Nc1ccccc1NC(=O)c1ccc(CNC(=O)OCc2cccnc2)cc1 [Entinostat] + CCNC(=O)c1noc(-c2cc(C(C)C)c(O)cc2O)c1-c1ccc(CN2CCOCC2)cc1 [Luminespib] (partner 0.01 µM)
How it was run: (§1)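 Lung cancer cell lines were pin-tool dosed in 1536-well plates on the day after seeding, with either a lone drug or a fixed anchor-drug dose plus five library-drug doses (not always all listed) in √10 steps. Nuclei were counted on 4× images after 5 days. Relative viability is the ratio of treated-well to vehicle-well nuclei counts, with each value a median of duplicate plates.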

SGI-1776 + Luminespib = compound: CN1CCC(CNc2ccc3ncc(-c4cccc(OC(F)(F)F)c4)n3n2)CC1 [SGI-1776] + CCNC(=O)c1noc(-c2cc(C(C)C)c(O)cc2O)c1-c1ccc(CN2CCOCC2)cc1 [Luminespib] (partner 0.01 µM)
How it was run: as §1

Entinostat + Phenformin = compound: Nc1ccccc1NC(=O)c1ccc(CNC(=O)OCc2cccnc2)cc1 [Entinostat] + N=C(N)NC(=N)NCCc1ccccc1 [Phenformin] (partner 250 µM)
How it was run: as §1

Entinostat + Crizotinib = compound: Nc1ccccc1NC(=O)c1ccc(CNC(=O)OCc2cccnc2)cc1 [Entinostat] + C[C@@H](Oc1cc(-c2cnn(C3CCNCC3)c2)cnc1N)c1c(Cl)ccc(F)c1Cl [Crizotinib] (partner 1 µM)
How it was run: as §1

Cell Line	relative viability (Entinostat + Luminespib; first compound 0.02 µM)	relative viability (Entinostat + Luminespib; first compound 0.06325 µM)	relative viability (Entinostat + Luminespib; first compound 0.2 µM)	relative viability (Entinostat + Luminespib; first compound 0.6325 µM)	relative viability (Entinostat + Luminespib; first compound 2 µM)	relative viability (SGI-1776 + Luminespib; first compound 0.08 µM)	relative viability (SGI-1776 + Luminespib; first compound 0.8 µM)	relative viability (SGI-1776 + Luminespib; first compound 2.53 µM)	relative viability (SGI-1776 + Luminespib; first compound 8 µM)	relative viability (Entinostat + Phenformin; first compound 0.02 µM)	relative viability (Entinostat + Phenformin; first compound 0.06325 µM)	relative viability (Entinostat + Phenformin; first compound 0.2 µM)	relative viability (Entinostat + Phenformin; first compound 0.6325 µM)	relative viability (Entinostat + Phenformin; first compound 2 µM)	relative viability (Entinostat + Crizotinib; first compound 0.02 µM)	relative viability (Entinostat + Crizotinib; first compound 0.06325 µM)	relative viability (Entinostat + Crizotinib; first compound 0.2 µM)	relative viability (Entinostat + Crizotinib; first compound 0.6325 µM)	relative viability (Entinostat + Crizotinib; first compound 2 µM)
ChaGo-K-1	0.765	0.523	0.487	0.596	0.503	0.586	0.51	0.706	0.556	0.607	0.471	0.567	0.456	0.462	1.18	1.19	0.967	0.966	0.631
COR-L23	0.697	0.535	0.49	0.296	0.108	0.702	0.68	0.743	0.511	0.433	0.429	0.389	0.245	0.144	0.508	0.524	0.513	0.205	0.0924
EMC-BAC-2	1.15	1.15	1.02	0.768	0.529	1.2	1.27	1.26	1.11	0.523	0.533	0.449	0.416	0.293	0.812	0.702	0.708	0.522	0.368
LCLC-97TM1	0.939	0.798	0.695	0.808	0.491	0.947	0.847	0.746	0.742	0.423	0.376	0.392	0.465	0.395	0.285	0.435	0.303	0.273	0.151
LK-2	0.18	0.192	0.178	0.188	0.178	0.17	0.188	0.257	0.159	0.497	0.761	0.576	0.383	0.32	0.252	0.234	0.227	0.255	0.248
NCI-H3122	0.129	0.141	0.102	0.0843	0.073	0.089	0.096	0.0857	0.0863	0.411	0.395	0.389	0.321	0.22	0.28	0.265	0.319	0.313	0.334
NCI-H2126	0.815	0.906	0.894	0.766	0.462	0.933	0.972	0.947	0.774	0.53	0.512	0.535	0.452	0.363	1.01	1.06	0.954	0.89	0.58
NCI-H520	0.192	0.225	0.227	0.281	0.228	0.209	0.218	0.244	0.281	0.497	0.723	0.701	0.615	0.49	0.735	0.613	0.779	0.413	0.251
LU99A	0.286	0.255	0.322	0.211	0.281	0.245	0.247	0.253	0.254	0.783	0.891	0.722	0.609	0.545	0.537	0.592	0.565	0.38	0.267
NCI-H1666	1.05	1.19	1.04	0.701	0.445	1.03	0.995	0.972	0.877	0.56	0.609	0.581	0.497	0.443	0.973	1.16	0.843	0.404	0.321
NCI-H460	0.0255	0.0353	0.0291	0.0258	0.0328	0.0293	0.0297	0.0268	0.019	0.511	0.479	0.298	0.0601	0.0314	0.907	0.945	0.522	0.0251	0.0158
